According to BindingDB's records for doi:10.7270/Q2V40SP7 (The Scripps Research Institute Molecular Screening Center, 2011):

Each compound was assayed against T1, Peroxisome proliferator-activated receptor gamma (Homo sapiens, UniProt P37231) (assay: PPARg ligand-binding domain binders, dose response, PPARg partial agonist project, biochemical, TR-FRET, LanthaScreen (AID 504446)).
T1 sequence (P37231 whole entry): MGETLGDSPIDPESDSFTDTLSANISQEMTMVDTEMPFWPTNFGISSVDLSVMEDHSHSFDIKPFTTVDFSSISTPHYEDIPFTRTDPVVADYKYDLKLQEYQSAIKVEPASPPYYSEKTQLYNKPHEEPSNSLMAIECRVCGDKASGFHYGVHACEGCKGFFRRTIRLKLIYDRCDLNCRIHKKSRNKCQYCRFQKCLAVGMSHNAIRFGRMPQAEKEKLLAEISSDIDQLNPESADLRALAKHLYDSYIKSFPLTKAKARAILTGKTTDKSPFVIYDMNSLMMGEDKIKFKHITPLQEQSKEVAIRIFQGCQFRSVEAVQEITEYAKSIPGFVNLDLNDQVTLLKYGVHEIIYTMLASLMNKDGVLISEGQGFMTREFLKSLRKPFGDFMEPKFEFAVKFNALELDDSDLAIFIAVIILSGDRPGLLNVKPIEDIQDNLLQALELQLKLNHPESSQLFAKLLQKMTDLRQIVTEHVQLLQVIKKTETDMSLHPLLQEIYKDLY

Compound | IC50
Cc1ccc2nc(N3C(=O)C(=O)C(C(=O)c4ccco4)C3c3ccc(C)o3)sc2c1 (centres undefined) [3-[2-furanyl(oxo)methyl]-4-hydroxy-1-(6-methyl-1,3-benzothiazol-2-yl)-2-(5-methyl-2-furanyl)-2H-pyrrol-5-one;oxalic acid] | 14 µM
CCOc1ccc2nc(N3C(=O)C(=O)C(C(=O)c4ccco4)C3c3ccco3)sc2c1 (centres undefined) [1-(6-ethoxy-1,3-benzothiazol-2-yl)-2-(2-furanyl)-3-[2-furanyl(oxo)methyl]-4-hydroxy-2H-pyrrol-5-one] | 8.2 µM
COc1ccc2nc(N3C(=O)C(=O)C(C(=O)c4ccco4)C3c3ccc(C)o3)sc2c1 (centres undefined) | 1.2 µM
Cc1ccc2nc(N3C(=O)C(=O)C(C(=O)c4ccc(C)o4)C3c3ccco3)sc2c1 (centres undefined) | 2.6 µM
